From the RepoRT retention time repository (doi:10.1021/acs.analchem.2c02893)

Assay: RP, Thermo Scientific Acclaim RSLC 120 C18, 100 × 2.1 mm, 2.2 µm, 30 °C, 0.2 mL/min, estimated dead time 1.1 min; A: 90% water + 10% methanol + 0.01% formic acid + 5 mM ammonium formate, pH 3.61; B: methanol + 0.01% formic acid + 5 mM ammonium formate, pH 3.61; gradient (min/%B) 0/1 1/1 2/39 13/99.9 15/99.9 15.1/1 20.1/1
Conditions: stereoisomer not certain

Row | Compound | LC retention time
1 | CC(CCCNCCO)Nc1ccnc2cc(Cl)ccc12 (stereo unspecified) [Chloroquine-Desethylhydroxy] | 3.88 min
2 | CCCCc1oc2ccccc2c1C(=O)c1cc(I)c(OCCN(CC)CC)c(I)c1 [Amiodarone] | 12.1 min
3 | COc1cccc(N(C)C(=S)Oc2cccc(C(C)(C)C)c2)n1 [Pyributicarb] | 12.5 min
4 | COP(=S)(OC)Oc1ccc(S(=O)(=O)N(C)C)cc1 [Famphur] | 7.99 min
5 | CN1C2CCC1C(C(=O)O)C(OC(=O)c1ccccc1)C2 (stereo unspecified) [Benzoylecgonine] | 4.68 min
6 | CCCCNC(=O)NS(=O)(=O)c1ccc(N)cc1 [Carbutamide] | 5.36 min
7 | CC1(C)OCC2OC3(C(=O)O)OC(C)(C)OC3C2O1 (stereo unspecified) [Dikegulac] | 4.76 min
8 | CCCCCn1cc(C(=O)c2ccc(Br)c3ccccc23)c2ccccc21 [JWH-387] | 13.4 min
9 | CNCC(c1ccc(OC)cc1)C1(O)CCCCC1 (stereo unspecified) [Venlafaxine-N-Desmethyl (norvenlafaxine)] | 6.18 min
10 | CNC(=O)ON=CC(C)(C)SC [Aldicarb] | 6.17 min
11 | CCc1ccc(C(=O)NN(C(=O)c2cc(C)cc(C)c2)C(C)(C)C)cc1 [Tebufenozide] | 10.4 min
12 | CC#CCn1c(N2CCCC(N)C2)nc2c1c(=O)n(Cc1nc(C)c3ccccc3n1)c(=O)n2C (stereo unspecified) [Linagliptin] | 6.01 min
13 | COC1=CC(=O)OC(C=Cc2ccccc2)C1 (stereo unspecified) [Kavain] | 8.32 min
14 | COc1cc(CCN)c(OC)cc1C [2 C-D] | 5.34 min
15 | CC1(c2ccc(Oc3ccccc3)cc2)OC(=O)N(Nc2ccccc2)C1=O (stereo unspecified) [Famoxadone] | 11 min
16 | O=C(Nc1ccccc1-c1ccc(Cl)cc1)c1cccnc1Cl [Boscalid] | 9.4 min
17 | C#CC1(OC(C)=O)CCC2C3CCC4=CC(=O)CCC4C3CCC21C (stereo unspecified) [Norethisterone acetate] | 10.8 min
18 | CC(CN(C)C)CN1c2ccccc2S(=O)(=O)c2ccccc21 (stereo unspecified) [Oxomemazine] | 5.34 min
19 | COC(=O)C1=C(C)NC(C)=C(C(=O)OC(C)(C)CN(C)CCC(c2ccccc2)c2ccccc2)C1c1cccc([N+](=O)[O-])c1 (stereo unspecified) [Lercanidipine] | 11.1 min
20 | O=C(Oc1cccc2cccnc12)c1cn(Cc2ccc(F)cc2)c2ccccc12 [FUB-PB-22] | 11.1 min
21 | CCC1CN2CCC3(O)C(=Nc4cccc(OC)c43)C2CC1C(=COC)C(=O)OC (stereo unspecified) [Mitragynine-7-Hydroxy] | 5.95 min
22 | C[N+](C)([O-])CCCC1(c2ccc(F)cc2)OCc2cc(C#N)ccc21 (stereo unspecified) [Citalopram N-oxide] | 7.1 min

Row | Compound | LC retention time
23 | COP(=S)(OC)Oc1ccc(C#N)cc1 [Cyanophos] | 8.27 min
24 | COc1ccccc1OCC(O)COC(N)=O (stereo unspecified) [Methocarbamol] | 5.21 min
25 | NC(=O)N1c2ccccc2C(O)C(O)c2ccccc21 (stereo unspecified) [Carbamazepine-10.11-dihydro-10.11 dihydroxy] | 5.79 min
26 | CCC(Oc1ccc(F)c(C(F)(F)F)c1)C(=O)NCc1ccccc1 (stereo unspecified) [Beflubutamide] | 10.6 min
27 | CNC(=O)ON=C(C)C(C)S(C)(=O)=O (stereo unspecified) [Butoxycarboxim] | 3.66 min
28 | O=C(Oc1cccc2ccccc12)c1cn(CCCCCF)c2ccccc12 [NM-2201] | 12.4 min
29 | Nc1nc(=O)n(C2CSC(CO)O2)cc1F (stereo unspecified) [Emtricitabine] | 3.41 min
30 | O=C(CCCN1CCC(n2c(=O)[nH]c3ccccc32)CC1)c1ccc(F)cc1 [Benperidol] | 5.96 min
31 | CN(C)CCC=C1c2ccccc2COc2ccccc21 [Doxepin] | 7.01 min
32 | C#CC[N+](C)([O-])C(C)Cc1ccccc1 (stereo unspecified) [Deprenyl-N-oxide] | 5.33 min
33 | Cc1cccc(N(C)C(=S)Oc2ccc3ccccc3c2)c1 [Tolnaftate] | 12.2 min
34 | Cc1ccc2n[nH]nc2c1 [Benzotriazole- 5-Me] | 5.83 min
35 | COc1nc(C)nc(NC(=O)NS(=O)(=O)c2ccccc2Cl)n1 [Chlorsulfuron] | 6.54 min
36 | CCC12CCCN3CCc4c(n(c5ccccc45)C(O)(C(=O)OC)C1)C32 (stereo unspecified) [Vincamine] | 5.04 min
37 | CCC(NC)C(=O)c1ccc(C)cc1 (stereo unspecified) [Buphedrone-4-Methyl] | 5.04 min
38 | Cc1ccc(NS(=O)(=O)N(C)C)cc1 [DMST (N.N-Dimethyl-N'-p-tolylsulphamide)] | 7.25 min
39 | COCCC(N)C(=O)O (stereo unspecified) [AMB] | 11.8 min
40 | COC1=CC(=O)CC(C)C12Oc1c(Cl)c(OC)cc(OC)c1C2=O (stereo unspecified) [Griseofulvin] | 8.05 min
41 | O=S1OCC2C(CO1)C1(Cl)C(Cl)=C(Cl)C2(Cl)C1(Cl)Cl (stereo unspecified) [Endosulfan] | 11.2 min
42 | CCOC(=O)C1(c2ccccc2)CCN(CCC(C#N)(c2ccccc2)c2ccccc2)CC1 [Diphenoxylate] | 10.4 min
43 | CC(O)CCn1cc(C(=O)c2cccc3ccccc23)c2ccccc21 (stereo unspecified) [JWH-073-M-3-OH-Butyl] | 9.91 min
44 | Cc1ncsc1CCCl [Clomethiazole] | 6.69 min

Row | Compound | LC retention time
45 | N#Cc1nn(-c2c(Cl)cc(C(F)(F)F)cc2Cl)c(N)c1S(=O)(=O)C(F)(F)F [Fipronil-sulfone] | 11 min
46 | CNC(=O)Oc1cccc(C)c1 [Metolcarb] | 6.59 min
47 | CN1C(=O)CN=C(c2ccccc2)c2cc(Cl)ccc21 [Diazepam] | 9.53 min
48 | COP(=S)(OC)SCC(=O)N(c1ccc(Cl)cc1)C(C)C [Anilofos] | 10.8 min
49 | CCCCn1cc(C(=O)c2cccc3ccccc23)c2ccc(O)cc21 [JWH-073-M-6-OH-Ind] | 10.6 min
50 | CN(C)CCOC(C)(c1ccccc1)c1ccccn1 (stereo unspecified) [Doxylamine] | 5.18 min
51 | CC1(C)C(C(=O)OC(C#N)c2cccc(Oc3ccccc3)c2)C1(C)C (stereo unspecified) [Fenpropathrin] | 12.9 min
52 | Cc1cccc2n[nH]nc12 [Benzotriazole -4-Me] | 5.83 min
53 | O=C(O)COCCN1CCN(C(c2ccccc2)c2ccc(Cl)cc2)CC1 (stereo unspecified) [Cetirizine] | 8.79 min
54 | CCOC1Oc2ccc(OS(C)(=O)=O)cc2C1(C)C (stereo unspecified) [Ethofumesate] | 9.14 min
55 | CNC(=O)C(C)SCCSP(=O)(OC)OC (stereo unspecified) [Vamidothion] | 5.02 min
56 | CCCCNc1ccc(C(=O)OCCN(C)C)cc1 [Tetracaine] | 6.43 min
57 | COP(=O)(OC)OC(=CCl)c1ccc(Cl)cc1Cl [Dimethylvinphos] | 9.86 min
58 | CNC(C)CC1CCCCC1 (stereo unspecified) [Levopropylhexedrine] | 5.74 min
59 | CCc1cc2c(s1)-n1c(C)nnc1CN=C2c1ccccc1Cl [Etizolam] | 8.31 min
60 | CC(=O)CC(c1ccccc1)c1c(O)c2ccccc2oc1=O (stereo unspecified) [Warfarin] | 9.35 min
61 | CCc1cc2c(cc1CC)CC(NCC(O)c1ccc(O)c3[nH]c(=O)ccc13)C2 (stereo unspecified) [Indacaterol] | 7.9 min
62 | O=C(Oc1ccccc1)c1ccccc1C(=O)Oc1ccccc1 [Phthalate-Diphenyl] | 11.2 min
63 | O=C(NCC1CCCCN1)c1cc(OCC(F)(F)F)ccc1OCC(F)(F)F (stereo unspecified) [Flecainide] | 6.44 min
64 | COc1nn(CSP(=S)(OC)OC)c(=O)s1 [Methidathion] | 8.7 min
65 | CN(CCOc1ccc(CC2SC(=O)NC2=O)cc1)c1ccccn1 (stereo unspecified) [Rosiglitazone] | 6.98 min
66 | OC(Cn1cncn1)(Cn1cncn1)c1ccc(F)cc1F [Fluconazole] | 5.06 min

Row | Compound | LC retention time
67 | C=CCOC(Cn1ccnc1)c1ccc(Cl)cc1Cl (stereo unspecified) [Imazalil] | 9.09 min
68 | Cc1cc(O)cc(C)c1S(C)=O (stereo unspecified) [Methiocarb-sulfoxide phenol] | 4.63 min
69 | COc1ccc2[nH]cc(CCN(C(C)C)C(C)C)c2c1 [MeO-DIPT (5-)] | 4.81 min
70 | CNc1cnn(-c2cccc(C(F)(F)F)c2)c(=O)c1Cl [Norflurazon] | 8.51 min
71 | O=C(c1cccc2ccccc12)c1nn(CCCCCF)c2ccccc12 [THJ-2201] | 11.9 min
72 | Cn1nnc2ccccc21 [Benzotriazole -1-Methyl] | 5.11 min
73 | CCCOC(C(=O)OC1CCN(C)CC1)(c1ccccc1)c1ccccc1 [Propiverine] | 9.36 min
74 | CC(Oc1ccc(Oc2nc3ccc(Cl)cc3o2)cc1)C(=O)O (stereo unspecified) [Fenoxaprop-P] | 9.83 min
75 | CNC(C)Cc1ccccc1F (stereo unspecified) [Amphetamine-2-F-Methyl (2-F-methamphetamine)] | 4.33 min
76 | CNC(CC(C)C)C1(c2ccc(Cl)cc2)CCC1 (stereo unspecified) [Sibutramine-Nor] | 8.68 min
77 | CCCCCn1nc(C(=O)NC23CC4CC(CC(C4)C2)C3)c2ccccc21 [AKB48 (APINACA)] | 14 min
78 | NCC(O)c1ccccc1 (stereo unspecified) [Apophedrin  (Phenylethanolamine)] | 2.84 min
79 | CCCc1nn(C)c2c(=O)[nH]c(-c3cc(C(=O)CN4CCN(CC)C(=O)C4)ccc3OCC)nc12 [Oxohongdenafil] | 9.09 min
80 | Cc1ccccc1C(OCCN(C)C)c1ccccc1 (stereo unspecified) [Orphenadrine] | 7.44 min
81 | CC1(C)SC2C(NC(=O)C(N)c3ccccc3)C(=O)N2C1C(=O)O (stereo unspecified) [Ampicillin] | 4.21 min
82 | CON(C)C(=O)Nc1ccc(Cl)cc1 [Monolinuron] | 7.76 min
83 | CCCCCCCC[N+](C)(C)C [Trimethyloctylammonium] | 6.08 min
84 | CCn1cc(C(=O)O)c(=O)c2ccc(C)nc21 [Nalidixic acid] | 7.06 min
85 | CCOC(=O)CC(SP(=S)(OC)OC)C(=O)OCC (stereo unspecified) [Malathion] | 9.59 min
86 | CC(=O)Nc1c(C)n(C)n(-c2ccccc2)c1=O [Antipyrine- 4-Acetamido] | 3.94 min
